Assay results from publication PMC6199744, “Development of Chemical Proteomics for the Folateome and Analysis of the Kinetoplastid Folateome” (ACS Infectious Diseases, 2018).
Where two headings read alike, the source gives them in different places.

How the values were obtained:
Type in all cases: binding
[1] = molecular target: T1, HeLa cell extract proteins (Homo sapiens, UniProt Q06830)
T1 construct: endogenous in cells; host or cells: HeLa cell extract
T1 sequence (Q06830 1-199): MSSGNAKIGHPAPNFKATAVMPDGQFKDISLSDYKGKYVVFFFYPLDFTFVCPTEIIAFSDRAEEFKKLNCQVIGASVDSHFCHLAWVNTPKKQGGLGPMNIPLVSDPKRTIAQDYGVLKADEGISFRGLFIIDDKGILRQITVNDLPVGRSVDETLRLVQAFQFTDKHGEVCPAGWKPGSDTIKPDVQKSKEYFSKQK

[2] = molecular target: T2, HeLa cell extract proteins (Homo sapiens, UniProt P13674)
T2 construct: endogenous in cells; host or cells: HeLa cell extract
T2 sequence (P13674 18-534): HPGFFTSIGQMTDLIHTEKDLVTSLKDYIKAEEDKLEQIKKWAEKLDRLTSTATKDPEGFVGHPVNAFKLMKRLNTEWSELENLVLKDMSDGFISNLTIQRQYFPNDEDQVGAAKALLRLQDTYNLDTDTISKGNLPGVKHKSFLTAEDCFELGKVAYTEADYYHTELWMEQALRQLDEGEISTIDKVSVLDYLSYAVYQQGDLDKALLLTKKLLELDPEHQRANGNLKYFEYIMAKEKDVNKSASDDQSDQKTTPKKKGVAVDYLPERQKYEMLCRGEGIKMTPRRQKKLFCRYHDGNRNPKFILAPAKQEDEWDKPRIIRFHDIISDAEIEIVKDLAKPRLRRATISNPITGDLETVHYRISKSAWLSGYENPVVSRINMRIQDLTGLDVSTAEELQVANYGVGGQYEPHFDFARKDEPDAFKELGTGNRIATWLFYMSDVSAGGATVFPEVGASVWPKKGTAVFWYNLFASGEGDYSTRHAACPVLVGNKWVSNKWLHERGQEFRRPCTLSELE

[3] = molecular target: T3, HeLa cell extract proteins (Homo sapiens, UniProt P11940)
T3 construct: endogenous in cells; host or cells: HeLa cell extract
T3 sequence (P11940 whole entry): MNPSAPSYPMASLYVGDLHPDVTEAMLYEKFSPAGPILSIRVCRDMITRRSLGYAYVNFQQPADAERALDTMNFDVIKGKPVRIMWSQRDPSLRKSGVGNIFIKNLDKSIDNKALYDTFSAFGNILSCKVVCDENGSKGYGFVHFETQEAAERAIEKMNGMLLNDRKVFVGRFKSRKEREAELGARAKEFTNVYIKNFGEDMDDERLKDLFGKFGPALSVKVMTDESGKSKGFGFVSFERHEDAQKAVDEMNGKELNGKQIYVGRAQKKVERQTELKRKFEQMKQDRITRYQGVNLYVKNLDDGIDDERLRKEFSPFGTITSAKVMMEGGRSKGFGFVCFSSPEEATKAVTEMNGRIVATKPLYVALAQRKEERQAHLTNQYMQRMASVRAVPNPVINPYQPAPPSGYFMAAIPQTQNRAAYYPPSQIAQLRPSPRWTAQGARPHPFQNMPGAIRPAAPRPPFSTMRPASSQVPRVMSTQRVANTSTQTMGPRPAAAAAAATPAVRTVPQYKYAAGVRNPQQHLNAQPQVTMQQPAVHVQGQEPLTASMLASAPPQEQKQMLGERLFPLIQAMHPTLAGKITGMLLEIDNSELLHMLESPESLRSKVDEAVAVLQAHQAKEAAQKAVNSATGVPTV

[4] = molecular target: T4, HeLa cell extract proteins (Homo sapiens, UniProt Q9UII2)
T4 construct: endogenous in cells; host or cells: HeLa cell extract
T4 sequence (Q9UII2 26-106): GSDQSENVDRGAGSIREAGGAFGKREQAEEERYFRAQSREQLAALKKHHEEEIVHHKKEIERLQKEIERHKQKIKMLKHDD

[5] = molecular target: T5, HeLa cell extract proteins (Homo sapiens, UniProt P24666)
T5 construct: endogenous in cells; host or cells: HeLa cell extract
T5 sequence (P24666 1-158): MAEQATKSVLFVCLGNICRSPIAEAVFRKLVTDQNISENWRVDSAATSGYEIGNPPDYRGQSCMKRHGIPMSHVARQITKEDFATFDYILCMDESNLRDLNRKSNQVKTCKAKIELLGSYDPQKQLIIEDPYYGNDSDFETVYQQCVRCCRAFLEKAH

[6] = molecular target: T6, HeLa cell extract proteins (Homo sapiens, UniProt O95163)
T6 construct: endogenous in cells; host or cells: HeLa cell extract
T6 sequence (O95163 1-1332): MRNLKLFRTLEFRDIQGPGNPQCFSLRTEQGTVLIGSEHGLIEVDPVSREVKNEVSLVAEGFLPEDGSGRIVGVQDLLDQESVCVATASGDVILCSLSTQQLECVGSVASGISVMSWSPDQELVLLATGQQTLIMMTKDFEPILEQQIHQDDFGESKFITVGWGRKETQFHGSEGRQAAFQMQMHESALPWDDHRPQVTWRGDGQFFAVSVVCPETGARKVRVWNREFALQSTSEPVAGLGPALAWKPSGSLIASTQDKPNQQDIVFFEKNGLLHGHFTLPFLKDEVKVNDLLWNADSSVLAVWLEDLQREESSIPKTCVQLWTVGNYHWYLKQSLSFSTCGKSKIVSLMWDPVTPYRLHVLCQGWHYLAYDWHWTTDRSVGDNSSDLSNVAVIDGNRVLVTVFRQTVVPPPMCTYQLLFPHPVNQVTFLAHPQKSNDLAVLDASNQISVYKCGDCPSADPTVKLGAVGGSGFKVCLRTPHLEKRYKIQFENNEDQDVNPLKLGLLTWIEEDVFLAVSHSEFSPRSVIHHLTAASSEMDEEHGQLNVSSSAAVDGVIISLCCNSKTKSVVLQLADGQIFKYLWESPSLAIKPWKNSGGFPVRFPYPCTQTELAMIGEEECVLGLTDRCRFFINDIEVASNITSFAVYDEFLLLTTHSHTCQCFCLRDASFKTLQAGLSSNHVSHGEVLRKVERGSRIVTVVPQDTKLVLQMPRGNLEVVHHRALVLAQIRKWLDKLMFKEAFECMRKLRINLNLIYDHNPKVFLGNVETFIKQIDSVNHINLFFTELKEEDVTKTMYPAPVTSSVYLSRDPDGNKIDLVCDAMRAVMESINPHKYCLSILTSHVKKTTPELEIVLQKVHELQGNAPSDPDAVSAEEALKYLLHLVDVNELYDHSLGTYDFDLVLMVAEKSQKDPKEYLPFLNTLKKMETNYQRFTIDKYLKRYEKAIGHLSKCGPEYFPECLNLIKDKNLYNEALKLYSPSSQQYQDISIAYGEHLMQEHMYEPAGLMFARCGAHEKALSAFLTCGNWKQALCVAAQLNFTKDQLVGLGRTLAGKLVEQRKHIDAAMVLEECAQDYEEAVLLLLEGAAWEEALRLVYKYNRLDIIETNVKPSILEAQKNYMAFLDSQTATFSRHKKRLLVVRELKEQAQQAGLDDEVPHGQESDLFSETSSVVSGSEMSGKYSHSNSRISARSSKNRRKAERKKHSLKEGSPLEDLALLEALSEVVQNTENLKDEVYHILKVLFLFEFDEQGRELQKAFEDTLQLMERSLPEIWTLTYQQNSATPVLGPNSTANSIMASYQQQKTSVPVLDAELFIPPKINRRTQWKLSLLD

[7] = molecular target: T7, HeLa cell extract proteins (Homo sapiens, UniProt P39019)
T7 construct: endogenous in cells; host or cells: HeLa cell extract

[8] = molecular target: T8, HeLa cell extract proteins (Homo sapiens, UniProt Q16891)
T8 construct: endogenous in cells; host or cells: HeLa cell extract
T8 sequence (Q16891 34-758): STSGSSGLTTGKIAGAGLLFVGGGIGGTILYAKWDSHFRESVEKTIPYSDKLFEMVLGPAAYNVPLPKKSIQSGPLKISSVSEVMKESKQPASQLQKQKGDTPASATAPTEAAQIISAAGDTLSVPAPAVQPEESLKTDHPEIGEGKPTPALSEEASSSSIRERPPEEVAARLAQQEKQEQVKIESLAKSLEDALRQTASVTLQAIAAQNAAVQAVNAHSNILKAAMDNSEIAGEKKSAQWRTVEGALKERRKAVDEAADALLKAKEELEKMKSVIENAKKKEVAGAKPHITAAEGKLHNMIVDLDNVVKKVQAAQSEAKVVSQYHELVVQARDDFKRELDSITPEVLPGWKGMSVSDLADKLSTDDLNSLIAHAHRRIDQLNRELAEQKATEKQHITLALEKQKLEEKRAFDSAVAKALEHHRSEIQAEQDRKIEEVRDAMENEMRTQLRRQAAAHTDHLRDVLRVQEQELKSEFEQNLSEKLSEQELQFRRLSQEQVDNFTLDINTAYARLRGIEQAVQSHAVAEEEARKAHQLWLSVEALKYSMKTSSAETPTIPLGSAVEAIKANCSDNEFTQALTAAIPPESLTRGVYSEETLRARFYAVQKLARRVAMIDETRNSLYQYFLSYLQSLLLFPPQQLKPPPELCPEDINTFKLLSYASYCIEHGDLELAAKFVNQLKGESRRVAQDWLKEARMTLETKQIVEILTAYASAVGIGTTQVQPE

[9] = molecular target: T9, HeLa cell extract proteins (Homo sapiens, UniProt Q8TEM1)
T9 construct: endogenous in cells; host or cells: HeLa cell extract
T9 sequence (Q8TEM1 27-1887): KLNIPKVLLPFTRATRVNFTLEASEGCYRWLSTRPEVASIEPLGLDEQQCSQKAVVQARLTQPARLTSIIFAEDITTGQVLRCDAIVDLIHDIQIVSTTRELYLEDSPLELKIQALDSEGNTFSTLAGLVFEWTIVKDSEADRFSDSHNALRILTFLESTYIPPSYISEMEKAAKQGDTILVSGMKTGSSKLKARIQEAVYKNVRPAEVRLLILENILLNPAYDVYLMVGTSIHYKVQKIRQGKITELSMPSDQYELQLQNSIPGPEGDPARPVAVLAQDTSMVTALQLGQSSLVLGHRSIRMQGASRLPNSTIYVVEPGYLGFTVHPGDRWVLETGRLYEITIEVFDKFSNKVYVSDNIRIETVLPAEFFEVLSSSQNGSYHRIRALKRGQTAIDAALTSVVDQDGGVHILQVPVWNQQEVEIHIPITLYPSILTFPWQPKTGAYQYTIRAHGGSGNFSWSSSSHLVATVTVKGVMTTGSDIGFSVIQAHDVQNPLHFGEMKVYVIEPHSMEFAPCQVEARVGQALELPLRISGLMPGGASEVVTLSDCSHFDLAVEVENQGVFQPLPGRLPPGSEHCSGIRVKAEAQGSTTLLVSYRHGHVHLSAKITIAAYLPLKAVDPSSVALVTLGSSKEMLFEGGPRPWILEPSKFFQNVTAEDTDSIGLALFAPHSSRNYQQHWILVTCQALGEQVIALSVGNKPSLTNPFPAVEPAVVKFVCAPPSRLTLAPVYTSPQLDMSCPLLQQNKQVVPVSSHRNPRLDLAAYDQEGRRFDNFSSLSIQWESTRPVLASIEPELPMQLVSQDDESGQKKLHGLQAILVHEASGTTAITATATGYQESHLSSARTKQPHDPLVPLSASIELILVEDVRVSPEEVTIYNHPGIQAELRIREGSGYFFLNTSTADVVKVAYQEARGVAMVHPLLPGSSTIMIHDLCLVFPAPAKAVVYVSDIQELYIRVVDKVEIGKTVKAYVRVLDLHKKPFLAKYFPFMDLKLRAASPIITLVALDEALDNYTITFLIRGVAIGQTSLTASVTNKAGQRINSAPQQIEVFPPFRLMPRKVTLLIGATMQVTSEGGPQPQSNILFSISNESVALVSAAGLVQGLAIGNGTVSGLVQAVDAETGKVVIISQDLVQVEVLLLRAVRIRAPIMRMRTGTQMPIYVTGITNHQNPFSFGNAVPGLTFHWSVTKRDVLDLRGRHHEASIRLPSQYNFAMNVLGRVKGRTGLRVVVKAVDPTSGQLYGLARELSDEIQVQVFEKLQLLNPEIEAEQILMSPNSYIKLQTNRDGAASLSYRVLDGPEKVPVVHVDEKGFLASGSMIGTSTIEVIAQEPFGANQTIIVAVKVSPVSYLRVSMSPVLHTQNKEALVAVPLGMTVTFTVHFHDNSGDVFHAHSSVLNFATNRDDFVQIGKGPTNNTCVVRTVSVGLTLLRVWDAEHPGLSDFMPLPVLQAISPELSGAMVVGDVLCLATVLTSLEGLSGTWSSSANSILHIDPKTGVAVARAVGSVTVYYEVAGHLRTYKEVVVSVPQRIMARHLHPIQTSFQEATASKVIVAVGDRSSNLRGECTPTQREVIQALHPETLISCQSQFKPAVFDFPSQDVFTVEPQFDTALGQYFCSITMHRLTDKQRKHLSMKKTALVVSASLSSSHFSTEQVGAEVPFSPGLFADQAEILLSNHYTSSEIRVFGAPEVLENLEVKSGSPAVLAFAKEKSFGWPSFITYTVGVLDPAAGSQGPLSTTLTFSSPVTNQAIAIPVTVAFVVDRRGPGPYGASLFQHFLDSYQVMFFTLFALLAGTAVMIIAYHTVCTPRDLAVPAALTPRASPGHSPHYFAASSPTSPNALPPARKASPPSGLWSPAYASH

[10] = HeLa, protein RPS19 (40S RIBOSOMAL PROTEIN S19)

Row | SMILES | fold changes relative to vehicle control ([1]; HeLa, protein PRDX1) | fold changes relative to vehicle control ([2]; HeLa, captured protein P4HA1) | fold changes relative to vehicle control ([3]; HeLa, protein PABPC1) | fold changes relative to vehicle control ([4]; HeLa, protein ATPIF1) | fold changes relative to vehicle control ([5]; protein ACP1, HeLa) | fold changes relative to vehicle control ([6]; HeLa, captured protein IKBKAP) | fold changes relative to vehicle control [7, 10] | fold changes relative to vehicle control ([8]; HeLa, captured protein IMMT) | fold changes relative to vehicle control ([9]; HeLa, captured protein NUP210) | fold changes relative to vehicle control ([1]; protein PRDX1, HeLa) | fold changes relative to vehicle control ([2]; HeLa, protein P4HA1) | fold changes relative to vehicle control ([4]; protein ATPIF1, HeLa) | fold changes relative to vehicle control ([5]; HeLa, protein ACP1) | fold changes relative to vehicle control ([6]; protein IKBKAP, HeLa) | fold changes relative to vehicle control ([7]; protein RPS19, HeLa) | fold changes relative to vehicle control ([8]; HeLa, protein IMMT) | fold changes relative to vehicle control ([9]; captured protein NUP210, HeLa) | further results
1 | Nc1nc2c(c(=O)[nH]1)N(C=O)C(CNc1ccc(C(=O)N[C@@H](CCC(=O)O)C(=O)O)cc1)CN2 (stereo partly drawn) [LEU, leucovorin] | 1.01 | 1.02 | 0.98 | 1 | 0.72 | 1.15 | 1.12 | 0.97 | 0.97 |  |  |  |  |  |  |  |  | 
2 | Nc1nc2[nH]cc(CCc3ccc(C(=O)N[C@@H](CCC(=O)O)C(=O)O)cc3)c2c(=O)[nH]1 [PTX, pemetrexed] |  |  |  |  |  |  |  |  |  |  |  |  |  |  |  |  |  | fold changes relative to vehicle control [1]: 1.05; fold changes relative to vehicle control [2]: 0.88; fold changes relative to vehicle control [3]: 0.96; fold changes relative to vehicle control [4]: 1.84; fold changes relative to vehicle control [5]: 0.84; fold changes relative to vehicle control [6]: 1.11; fold changes relative to vehicle control [7]: 1.11; fold changes relative to vehicle control [8]: 1.01; fold changes relative to vehicle control [9]: 0.99
3 | CCCCCCOc1ccc(Cc2cnc(N)nc2N)cc1 [compound 1] |  |  | 0.97 |  |  |  |  |  |  | 1.24 | 0.9 | 0.97 | 0.77 | 1.33 | 0.98 | 0.96 | 0.74 | 
4 | CCCCCCOc1cccc(Cc2cnc(N)nc2N)c1 [compound 2] |  |  | 1.19 |  |  |  |  |  |  | 2.05 | 1.05 | 1.32 | 0.98 | 1.3 | 1.19 | 1.14 | 0.98 | 
5 | Nc1nc2cccc(-c3ccccc3)c2n1Cc1ccc(Cl)c(Cl)c1 [compound 3] |  |  | 0.94 |  |  |  |  |  |  | 0.85 | 0.98 | 0.91 | 0.71 | 1.12 | 1.01 | 1.05 | 0.86 | 
6 | NCCOCCOCC(=O)Nc1nc2ncc(CNc3ccc(C(=O)NC(CCC(=O)O)C(=O)O)cc3)nc2c(=O)[nH]1 (stereo not drawn) [compound 6] | 1.1 | 1 | 0.97 | 1.91 | 1.04 | 1.2 | 1.1 | 1.03 | 1.07 |  |  |  |  |  |  |  |  | 
7 | NCCCNc1ccc(C(=O)NC(CCC(=O)O)C(=O)O)cc1 (stereo not drawn) [compound 7] | 0.87 | 1.04 | 1.05 | 1.41 | 0.71 | 1.01 | 1.06 | 1.09 | 1.05 |  |  |  |  |  |  |  |  | 
